This note sets out measurements from patent publication US20070275936A1, “Formulations and Treatment Methods” (priority 1998, published 2007).

One data set has as its system Sprague Dawley rats. Briefly: TNBS induced distal colitis in rats. The settings on record: day 14. It is filed as in vivo. How it is done: In another protocol formula 1 compounds were used in a similar animal model. Groups of 10 male Sprague Dawley rats (250-300 grams) were fasted for 24 hours before 2,4,6-trinitrobenzene sulfonic acid (TNBS) or saline challenge. This model presents a severe challenge to the animal's immune system. On Day 0, the rats were lightly anesthetized and a catheter inserted rectally into the colon such that the tip was 8 cm proximal to the anus. Distal colitis was induced by intra-colonic instillation of 0.5 mL of an ethanolic solution of TNBS (60 mg/mL ethanol 50% in water). The test substance, 7-oxodehydroepiandrosterone 20 mg/mL in vehicle or vehicle control was administered by subcutaneous injection (0.1 mL/injection) once a day for 6 days, the first dose being given 30 minutes after TNBS challenge. Sulfasalazine (30 mg/mL in 2% Tween 80 in distilled water) or vehicle control was administered orally (PO) once a day (10 mL/kg/day) for 7 days, the first two doses beginning 24 hours and 2 hours before […] challenge. Signs of diarrhea were recorded daily by examining the anal area. Animals were fasted for 24 hours prior to sacrifice on day 14 and the colon was removed and weighed. After gross observations of colonic tissues, 3 samples were taken from regions approximately 1, 3, and 8 cm proximal to the anus. If gross ulcers or inflammation were present, at least one sample was taken from the affected region. Before removal of the colon, signs of adhesion between the colon and other organs were recorded. […] Body weight, colon-to-body-weight ratio, and damage scores were assessed. Visible damage was scored on a 1-5 scale as follows: 0=No damage; 1=Localized hyperemia but no ulcers; 2=linear ulcers with no significant inflammation; 3=Linear ulcers with inflammation at one site; 4=Two or more sites of ulceration and/or inflammation; 5=Two or more major sites of ulceration and inflammation or one major site of ulceration and inflammation extending more than 1 cm along the length of the colon. […]

A further data set has as its system HIV. The experiment in a line: HIV RNA level by PCR in HIV/HCV infected patient dosed I.V. with BrEA. It is filed as in vivo. The settings on record: predosing 5.2. As to the method:
A patient infected with HIV and HCV was dosed I.V. with BrEA for 3 consecutive days using a formulation that contained 20 mg/mL BrEA in 45% w/v hydroxypropyl-β-cyclodextrin and saline. Four mL of the formulation (80 mg BrEA) was administered to the patient every 4 hours during the 3 day treatment period. The patient's predosing HCV level was 6.5 Log10 as measured by PCR and the HCV level was 6.2 Log10 on the first day of dosing, 5.5 Log10 on the 3rd day of dosing and 4.9 Log10 three days after the last dose was administered. HIV RNA levels as measured by PCR was 5.2 Log10 (predosing), 5.8 Log10 (first day), 5.9 Log10 (third day) and 5.4 Log10 (day 6). The NK cell counts (cells/mm^3) were 28, 41 and 38 at predosing, day 0 and day 3.

A short description of data set [1]: Accelerated stability study of BrEA and the example 1 formulations. The data set is classed as physicochemical. How it is done: An accelerated stability study of 6 months duration is conducted using BrEA and the formulations from example 1. Samples are taken at 1, 2, 3, 4, 5, and 6 month time points and compared with the specifications listed in example 1. Real time stability (25° C., 60% relative humidity) is conducted using BrEA formulation Lots 1 and 2, with sampling time points at 3, 6, 9, 12, 18, 24, and 36 months. […] The results from the stability testing indicate that BrEA is stable for at least 3 months at elevated temperature and humidity in the Lot 1 and 2 formulations.

On to `C[C@]12CC[C@H](O)CC1=CC[C@@H]1[C@@H]2CC[C@]2(C)C(=O)CC[C@@H]12` [DHEA, dehydroepiandrosterone, reference compound], for which the “histopathology: inflammation / lesion frequency and severity versus controls” value with Sprague Dawley rats was “appeared to be similar”.
Regarding `C[C@]12CC[C@H](O)C[C@@H]1CC[C@@H]1[C@@H]2CC[C@]2(C)C(=O)[C@H](Br)C[C@@H]12` [BrEA, 16α-bromo-3β-hydroxy-5α-androstane-17-one], the “HIV RNA levels by PCR” value in the data set with HIV (day 6) was found to be 5.4 Log10; with HIV (first day) it was 5.8 Log10; with HIV (third day) it was 5.9 Log10. Besides, the “histopathology: inflammation / lesion frequency and severity versus controls” value in the data set with Sprague Dawley rats is reported as “appeared to be similar”. Further, in data set [1] (after 3 months of storage at 40° C. and 75% relative humidity), the “assay potency of BrEA” value was “at least 95 % of the label value”. In addition, the “time BrEA is stable” value in data set [1] (elevated temperature and humidity, in the Lot 1 and 2 formulations) is “at least 3 months”.
